Measurements from paper PMC3399817 (PLoS ONE, 2012).

Experiments:
[1] = biological target: T1, MAPKAPK2 (Homo sapiens, UniProt P49137); experiment: KINOMEscan; assay type: binding; settings: MAPKAPK2, 1 uM
T1 construct: purchased Ambit KINOMEscan (DiscoverX)

[2] = test system: panel of 402 kinases; experiment: KINOMEscan panel; assay type: binding; settings: 1 μM
Protocol: First, we used Ambit's KINOMEscan™ technology to identify those kinases that are inhibited for substrate binding by the compounds, all assayed at 1 μM. Second, we used Invitrogen's SelectScreen® Biochemical Kinase Profiling Service to determine the in vitro IC50s for the compounds against specific kinases.

[3] = biological target: T2, DCAMKL1 (Homo sapiens, UniProt O15075); experiment: KINOMEscan; assay type: binding; settings: DCAMKL1, 1 uM
T2 construct: purchased Ambit KINOMEscan (DiscoverX)
T2 sequence (O15075 whole entry): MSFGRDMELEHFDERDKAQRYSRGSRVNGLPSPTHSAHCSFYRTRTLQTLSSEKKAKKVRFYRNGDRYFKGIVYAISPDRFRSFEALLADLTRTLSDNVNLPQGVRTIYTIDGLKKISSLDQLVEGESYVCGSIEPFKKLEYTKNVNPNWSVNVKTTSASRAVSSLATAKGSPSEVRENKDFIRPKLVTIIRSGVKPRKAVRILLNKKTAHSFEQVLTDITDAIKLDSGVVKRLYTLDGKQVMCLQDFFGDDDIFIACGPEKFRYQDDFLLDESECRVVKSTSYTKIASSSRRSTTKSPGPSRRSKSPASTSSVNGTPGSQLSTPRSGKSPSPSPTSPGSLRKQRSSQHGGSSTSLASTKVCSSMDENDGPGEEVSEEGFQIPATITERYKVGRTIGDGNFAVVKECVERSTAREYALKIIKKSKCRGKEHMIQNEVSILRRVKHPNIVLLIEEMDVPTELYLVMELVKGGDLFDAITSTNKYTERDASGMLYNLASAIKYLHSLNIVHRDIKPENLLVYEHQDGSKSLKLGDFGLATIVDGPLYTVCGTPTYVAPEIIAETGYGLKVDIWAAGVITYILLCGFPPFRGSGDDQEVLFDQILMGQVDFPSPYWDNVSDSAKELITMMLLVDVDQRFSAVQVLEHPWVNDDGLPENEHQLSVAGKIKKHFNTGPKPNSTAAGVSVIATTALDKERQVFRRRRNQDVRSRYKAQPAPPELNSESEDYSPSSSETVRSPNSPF
Outline: (§1)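 Panel profiling at one dose (1 μM) identifies kinases prevented from binding substrate by the test molecule.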

[4] = biological target: T3, YANK3 (Homo sapiens, UniProt Q86UX6); experiment: KINOMEscan; assay type: binding; settings: YANK3, 1 uM
T3 construct: purchased Ambit KINOMEscan (DiscoverX)
T3 sequence (Q86UX6 whole entry): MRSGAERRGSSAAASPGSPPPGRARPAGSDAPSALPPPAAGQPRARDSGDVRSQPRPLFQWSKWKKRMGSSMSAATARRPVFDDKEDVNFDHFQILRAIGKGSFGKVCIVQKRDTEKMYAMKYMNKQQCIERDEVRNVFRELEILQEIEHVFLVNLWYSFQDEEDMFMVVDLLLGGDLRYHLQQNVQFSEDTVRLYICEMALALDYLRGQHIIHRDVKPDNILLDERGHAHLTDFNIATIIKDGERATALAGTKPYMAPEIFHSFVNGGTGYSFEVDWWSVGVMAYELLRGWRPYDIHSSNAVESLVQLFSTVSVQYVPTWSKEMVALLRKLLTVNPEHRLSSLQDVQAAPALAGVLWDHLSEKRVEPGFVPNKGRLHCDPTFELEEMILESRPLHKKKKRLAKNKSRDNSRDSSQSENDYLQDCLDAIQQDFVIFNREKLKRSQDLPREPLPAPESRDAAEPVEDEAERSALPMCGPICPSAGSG
Outline: as §1

[5] = biological target: T4, DMPK (Homo sapiens, UniProt Q09013); experiment: KINOMEscan; assay type: binding; settings: 1 uM
T4 construct: purchased Ambit KINOMEscan (DiscoverX)
T4 sequence (Q09013 whole entry): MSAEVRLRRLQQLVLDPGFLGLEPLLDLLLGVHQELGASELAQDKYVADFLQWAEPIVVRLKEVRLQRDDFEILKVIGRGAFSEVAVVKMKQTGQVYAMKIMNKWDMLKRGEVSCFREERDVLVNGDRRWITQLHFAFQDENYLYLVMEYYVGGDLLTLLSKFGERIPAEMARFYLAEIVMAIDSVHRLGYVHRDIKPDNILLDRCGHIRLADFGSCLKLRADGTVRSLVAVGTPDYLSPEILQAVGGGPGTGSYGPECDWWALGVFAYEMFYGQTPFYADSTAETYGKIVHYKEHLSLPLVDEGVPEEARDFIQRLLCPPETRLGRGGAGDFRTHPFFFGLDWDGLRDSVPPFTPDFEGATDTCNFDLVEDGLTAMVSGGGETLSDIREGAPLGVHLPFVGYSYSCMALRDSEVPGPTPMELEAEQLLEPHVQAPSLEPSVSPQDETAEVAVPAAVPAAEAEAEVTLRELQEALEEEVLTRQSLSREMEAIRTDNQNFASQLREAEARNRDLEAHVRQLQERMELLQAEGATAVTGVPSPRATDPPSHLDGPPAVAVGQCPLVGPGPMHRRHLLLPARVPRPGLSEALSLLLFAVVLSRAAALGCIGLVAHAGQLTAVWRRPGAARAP
Outline: as §1

[6] = biological target: T5, RPS6KA2(Kin.Dom.2-C-terminal) (Homo sapiens, UniProt Q15349); experiment: KINOMEscan; assay type: binding; settings: 1 uM
T5 construct: RPS6KA2(Kin.Dom.2-C-terminal); purchased Ambit KINOMEscan (DiscoverX)
Outline: as §1

[7] = test system: phospho-MEK1 (Ser217/Ser221) and phospho-ERK1/2 (Thr202/Tyr204, Thr185/Tyr187); experiment: Bio-Plex phospho-MEK1 and phospho-ERK1/2; assay type: cell-based; settings: 45 minute exposure, 1 µM, K-RAS wild-type and mutant cells
Protocol: The Bio-Plex assay system was used to measure signaling in drug-treated cells. Briefly, cells were incubated in the presence of drug for various amounts of time and then lysed in Bio-Rad cell lysis buffer (Bio-Rad). Protein quantification was performed using BCA assay (Pierce) and 5 µg of protein from each sample was used for Bio-Plex analysis. Phospho-signaling assays were performed using available phospho-signaling assay kits and quantified on a Bio-Plex 200 system (Bio-Rad): p-Iκβα (Ser32/Ser36), p-JNK (Thr183/Tyr185), p-MEK1 (Ser217/Ser221), p-ERK1/2 (Thr202/Tyr204, Thr185/Tyr187), p-p90RSK (Thr359/Ser363), p-p38 (Thr180/Tyr182), p-c-JUN (Ser63), p-ATF2 (Thr71), p-AKT (Ser473), p-S6 (Ser235/Ser236), p-STAT3 (Ser727), p-STAT3 (Tyr705), and p-GSK3α/β (Ser21/Ser9). Bio-Plex assay for total MEK1 was also performed as a loading control.

[8] = biological target: T6, PRP4 (Homo sapiens, UniProt Q13523); experiment: KINOMEscan; assay type: binding; settings: PRP4, 1 uM
T6 construct: purchased Ambit KINOMEscan (DiscoverX)
T6 sequence (Q13523 whole entry): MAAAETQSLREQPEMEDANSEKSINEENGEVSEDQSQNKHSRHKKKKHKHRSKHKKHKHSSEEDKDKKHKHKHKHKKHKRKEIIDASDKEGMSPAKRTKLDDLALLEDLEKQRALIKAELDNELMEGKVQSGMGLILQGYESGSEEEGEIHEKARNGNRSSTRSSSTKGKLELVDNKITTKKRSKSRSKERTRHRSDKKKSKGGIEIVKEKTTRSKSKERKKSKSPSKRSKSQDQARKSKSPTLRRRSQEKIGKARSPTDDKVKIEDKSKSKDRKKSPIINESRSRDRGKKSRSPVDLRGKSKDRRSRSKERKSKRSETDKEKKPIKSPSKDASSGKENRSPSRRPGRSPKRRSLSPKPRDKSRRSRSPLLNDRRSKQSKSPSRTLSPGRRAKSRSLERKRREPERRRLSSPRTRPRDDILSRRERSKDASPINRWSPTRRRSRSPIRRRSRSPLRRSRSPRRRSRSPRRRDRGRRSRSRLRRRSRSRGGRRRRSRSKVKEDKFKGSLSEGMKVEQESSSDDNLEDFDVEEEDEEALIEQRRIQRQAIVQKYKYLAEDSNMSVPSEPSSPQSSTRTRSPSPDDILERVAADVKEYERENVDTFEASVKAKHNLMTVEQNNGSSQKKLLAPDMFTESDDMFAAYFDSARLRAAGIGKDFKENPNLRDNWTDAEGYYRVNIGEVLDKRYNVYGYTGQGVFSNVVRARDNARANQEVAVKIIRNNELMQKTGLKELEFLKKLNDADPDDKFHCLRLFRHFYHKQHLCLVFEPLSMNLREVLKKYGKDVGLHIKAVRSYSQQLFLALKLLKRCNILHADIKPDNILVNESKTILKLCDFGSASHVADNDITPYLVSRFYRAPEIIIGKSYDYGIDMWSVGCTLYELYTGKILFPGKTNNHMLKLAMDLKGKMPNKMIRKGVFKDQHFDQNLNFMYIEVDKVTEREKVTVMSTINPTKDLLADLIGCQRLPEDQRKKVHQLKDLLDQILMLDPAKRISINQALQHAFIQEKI

[9] = test system: HKe-3 (K-RAS^−/+); experiment: Cell viability (Syto60); assay type: cell-based; settings: 72 hours; for cooperation with / sensitization to AZ-628 (cell viability): K-RAS wild-type cells (HKe-3), 1 µM AZ-628
Protocol: All colon cancer cell lines were maintained in DMEM supplemented with penicillin (100 units/mL), streptomycin (100 μg/mL), and 10% fetal bovine serum (FBS). The rectal cancer cell line (Car1) was maintained in DMEM/F12 supplemented with penicillin (100 units/mL)/streptomycin (50 μg/mL), and 5% FBS. […] The target sequences for knockdowns can be found in Table S2. In drug treatment experiments, cells were plated for 24 hours prior to exposure to drug. AZ-628 was obtained from AstraZeneca. CI-1040 was obtained from Pfizer. R406 was synthesized in the Gray laboratory. BAY61-3606 and IKK VII were purchased from EMD Biosciences. BAY derivatives were synthesized for this study.
Cell cycle analysis was performed via FACS-based propidium iodide quantification, using standard methods. To measure cell viability, cells were grown in 96-well plates in the presence or absence of drug for 72 hours, fixed with 4% paraformaldehyde, and then stained with Syto60 (Invitrogen). Plates were imaged and quantified using the LiCor Odyssey system (LiCor).

[10] = biological target: T7, RET (Homo sapiens, UniProt P07949); experiment: KINOMEscan; assay type: binding; settings: 1 uM
T7 construct: purchased Ambit KINOMEscan (DiscoverX)
Outline: as §1

[11] = biological target: T8, CSNK1A1L (Homo sapiens, UniProt Q8N752); experiment: KINOMEscan; assay type: binding; settings: 1 uM
T8 construct: purchased Ambit KINOMEscan (DiscoverX)
T8 sequence (Q8N752 whole entry): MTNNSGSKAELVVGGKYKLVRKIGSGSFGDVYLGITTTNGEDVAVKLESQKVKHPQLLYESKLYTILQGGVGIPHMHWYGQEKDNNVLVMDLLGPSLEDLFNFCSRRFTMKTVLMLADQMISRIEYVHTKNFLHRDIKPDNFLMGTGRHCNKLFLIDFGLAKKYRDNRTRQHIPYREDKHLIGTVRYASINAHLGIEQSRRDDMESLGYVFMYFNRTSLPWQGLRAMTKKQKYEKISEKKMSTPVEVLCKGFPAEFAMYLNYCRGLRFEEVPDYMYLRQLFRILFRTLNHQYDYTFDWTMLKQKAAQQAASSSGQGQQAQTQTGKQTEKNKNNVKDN
Outline: as §1

[12] = biological target: T9, EIF2AK1 (Homo sapiens, UniProt Q9BQI3); experiment: KINOMEscan; assay type: binding; settings: EIF2AK1, 1 uM
T9 construct: purchased Ambit KINOMEscan (DiscoverX)
T9 sequence (Q9BQI3 whole entry): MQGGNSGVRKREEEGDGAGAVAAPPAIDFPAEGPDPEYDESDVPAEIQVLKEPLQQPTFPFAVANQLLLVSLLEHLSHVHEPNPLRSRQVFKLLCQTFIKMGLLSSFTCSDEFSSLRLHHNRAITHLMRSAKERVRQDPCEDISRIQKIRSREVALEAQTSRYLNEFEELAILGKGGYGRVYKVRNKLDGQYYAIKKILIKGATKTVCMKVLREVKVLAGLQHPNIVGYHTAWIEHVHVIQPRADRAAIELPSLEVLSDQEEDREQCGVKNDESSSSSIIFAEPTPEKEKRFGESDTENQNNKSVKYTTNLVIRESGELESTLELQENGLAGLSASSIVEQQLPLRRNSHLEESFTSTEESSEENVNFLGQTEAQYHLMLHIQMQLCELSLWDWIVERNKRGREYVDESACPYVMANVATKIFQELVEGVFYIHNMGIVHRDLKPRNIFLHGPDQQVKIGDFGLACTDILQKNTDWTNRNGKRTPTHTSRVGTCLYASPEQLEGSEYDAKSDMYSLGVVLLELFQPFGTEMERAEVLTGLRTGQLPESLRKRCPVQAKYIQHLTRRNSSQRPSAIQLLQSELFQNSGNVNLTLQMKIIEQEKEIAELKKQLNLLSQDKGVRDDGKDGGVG
Outline: as §1

[13] = biological target: T10, FLT3(K663Q) (Homo sapiens, UniProt P36888, K663Q); experiment: KINOMEscan; assay type: binding; settings: 1 uM
T10 construct: purchased Ambit KINOMEscan (DiscoverX)
Outline: as §1

[14] = biological target: T11, ABL1(F317I)-phosphorylated (Homo sapiens, UniProt P00519, F317I); experiment: KINOMEscan; assay type: binding; settings: 1 uM
T11 construct: purchased Ambit KINOMEscan (DiscoverX)
Outline: as §1

[15] = biological target: T12, IRAK4 (Homo sapiens, UniProt Q9NWZ3); experiment: KINOMEscan; assay type: binding; settings: IRAK4, 1 uM
T12 construct: purchased Ambit KINOMEscan (DiscoverX)
Outline: as §1

[16] = biological target: T13, RET(V804M) (Homo sapiens, UniProt P07949, V804M); experiment: KINOMEscan; assay type: binding; settings: 1 uM
T13 construct: purchased Ambit KINOMEscan (DiscoverX)
Outline: as §1

[17] = biological target: T14, SNRK (Homo sapiens, UniProt Q9NRH2); experiment: KINOMEscan; assay type: binding; settings: 1 uM
T14 construct: purchased Ambit KINOMEscan (DiscoverX)
Outline: as §1

[18] = biological target: T15, RIPK5 (Homo sapiens, UniProt Q6XUX3); experiment: KINOMEscan; assay type: binding; settings: RIPK5, 1 uM
T15 construct: purchased Ambit KINOMEscan (DiscoverX)
Outline: as §1

[19] = biological target: T16, SGK3 (Homo sapiens, UniProt Q96BR1); experiment: KINOMEscan; assay type: binding; settings: SGK3, 1 uM
T16 construct: purchased Ambit KINOMEscan (DiscoverX)
Outline: as §1

[20] = biological target: T17, EGFR(L861Q) (Homo sapiens, UniProt P00533, L861Q); experiment: KINOMEscan; assay type: binding; settings: 1 uM
T17 construct: purchased Ambit KINOMEscan (DiscoverX)
Outline: as §1

[21] = biological target: T18, PFPK5(P.falciparum) (Plasmodium falciparum, UniProt P61075); experiment: KINOMEscan; assay type: binding; settings: 1 uM
T18 construct: purchased Ambit KINOMEscan (DiscoverX)
Outline: as §1

[22] = biological target: T19, MKK7 (Homo sapiens, UniProt O14733); experiment: KINOMEscan; assay type: binding; settings: MKK7, 1 uM
T19 construct: purchased Ambit KINOMEscan (DiscoverX)
Outline: as §1

[23] = biological target: T20, LRRK2(G2019S) (Homo sapiens, UniProt Q5S007, G2019S); experiment: KINOMEscan; assay type: binding; settings: 1 uM
T20 construct: purchased Ambit KINOMEscan (DiscoverX)
Outline: as §1

[24] = biological target: T21, RET(V804L) (Homo sapiens, UniProt P07949, V804L); experiment: KINOMEscan; assay type: binding; settings: 1 uM
T21 construct: purchased Ambit KINOMEscan (DiscoverX)
Outline: as §1

[25] = biological target: T22, ABL1(F317L)-phosphorylated (Homo sapiens, UniProt P00519, F317L); experiment: KINOMEscan; assay type: binding; settings: 1 uM
T22 construct: purchased Ambit KINOMEscan (DiscoverX)
Outline: as §1

[26] = biological target: T23, ZAK (Homo sapiens, UniProt Q9NYL2); experiment: KINOMEscan; assay type: binding; settings: 1 uM
T23 construct: purchased Ambit KINOMEscan (DiscoverX)
T23 sequence (Q9NYL2 whole entry): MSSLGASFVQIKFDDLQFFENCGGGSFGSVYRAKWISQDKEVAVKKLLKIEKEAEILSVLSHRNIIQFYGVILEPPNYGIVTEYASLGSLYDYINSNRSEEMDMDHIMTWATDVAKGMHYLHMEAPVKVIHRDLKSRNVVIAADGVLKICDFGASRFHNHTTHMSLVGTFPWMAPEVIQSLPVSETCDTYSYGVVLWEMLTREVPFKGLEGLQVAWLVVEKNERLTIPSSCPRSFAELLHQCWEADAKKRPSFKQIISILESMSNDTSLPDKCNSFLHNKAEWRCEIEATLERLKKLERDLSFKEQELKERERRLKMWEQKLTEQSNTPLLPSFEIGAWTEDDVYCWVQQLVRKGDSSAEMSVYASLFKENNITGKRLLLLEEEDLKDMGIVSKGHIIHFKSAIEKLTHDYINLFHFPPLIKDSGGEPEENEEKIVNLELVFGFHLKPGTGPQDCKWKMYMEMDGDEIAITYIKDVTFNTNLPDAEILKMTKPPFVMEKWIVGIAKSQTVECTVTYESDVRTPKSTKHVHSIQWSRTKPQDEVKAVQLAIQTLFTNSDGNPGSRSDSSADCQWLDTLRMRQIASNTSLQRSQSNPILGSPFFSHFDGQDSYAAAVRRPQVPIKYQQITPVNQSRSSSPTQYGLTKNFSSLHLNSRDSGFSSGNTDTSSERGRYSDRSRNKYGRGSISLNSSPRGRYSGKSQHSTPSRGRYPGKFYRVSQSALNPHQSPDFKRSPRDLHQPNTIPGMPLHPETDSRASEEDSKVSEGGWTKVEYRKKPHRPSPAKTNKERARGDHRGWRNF
Outline: as §1

T1 sequence (P49137 whole entry): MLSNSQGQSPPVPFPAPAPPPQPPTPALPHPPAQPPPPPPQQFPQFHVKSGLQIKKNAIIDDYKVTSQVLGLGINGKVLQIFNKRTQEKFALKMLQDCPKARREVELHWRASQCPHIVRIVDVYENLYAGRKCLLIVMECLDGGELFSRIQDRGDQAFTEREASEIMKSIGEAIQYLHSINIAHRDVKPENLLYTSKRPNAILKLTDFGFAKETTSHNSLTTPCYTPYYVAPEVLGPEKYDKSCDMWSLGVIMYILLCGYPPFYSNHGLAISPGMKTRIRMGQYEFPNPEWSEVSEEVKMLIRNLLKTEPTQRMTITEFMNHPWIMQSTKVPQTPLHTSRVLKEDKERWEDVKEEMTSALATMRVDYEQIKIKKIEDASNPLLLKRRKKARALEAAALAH

SMILES: COc1ccc(-c2cc3nccn3c(Nc3ncccc3C(N)=O)n2)cc1OC.Cl.Cl [BAY61-3606, 2-[7-(3,4-dimethoxyphenyl)-imidazo [1,2-c]pyrimidin-5-ylamino] nicotinamide dihydrochloride, reference compound]
- % binding compared to no inhibitor control [1]: 100%
- number of kinases with binding inhibited by greater than 90% ([2]; panel of 402 kinases): 15 kinases
- % binding compared to no inhibitor control [3]: 93%
- % binding compared to no inhibitor control [4]: 53%
- % binding compared to no inhibitor control [5]: 72%
- % binding compared to no inhibitor control [6]: 89%
- MEK and ERK phosphorylation [7]: unable to do so
- % binding compared to no inhibitor control [8]: 77%
- sensitization to AZ-628 (cell viability) ([9]; HKe-3 cells with MAP4K2 knockdown, 1 µM + 1 µM AZ-628): no longer sensitizes
- cooperation with / sensitization to AZ-628 (cell viability) [9]: became sensitive

SMILES: COc1ccccc1Nc1nc(-c2ccc(OC)c(OC)c2)cc2nccn12 [BAY derivative 6]
- % binding compared to no inhibitor control [1]: 93%
- ability to competitively inhibit active site (ATP) binding across the kinase panel [2]: failed to effectively inhibit ATP binding by the majority of kinases
- % binding compared to no inhibitor control [10]: 100%
- % binding compared to no inhibitor control [11]: 100%
- % binding compared to no inhibitor control [3]: 87%
- % binding compared to no inhibitor control [12]: 88%
- % binding compared to no inhibitor control [13]: 63%
- % binding compared to no inhibitor control [14]: 86%
- % binding compared to no inhibitor control [15]: 100%
- % binding compared to no inhibitor control [4]: 100%
- % binding compared to no inhibitor control [16]: 94%
- % binding compared to no inhibitor control [17]: 94%
- % binding compared to no inhibitor control [18]: 100%
- % binding compared to no inhibitor control [19]: 100%
- % binding compared to no inhibitor control [20]: 68%
- % binding compared to no inhibitor control [21]: 100%
- % binding compared to no inhibitor control [22]: 86%
- % binding compared to no inhibitor control [23]: 92%
- % binding compared to no inhibitor control [5]: 100%
- % binding compared to no inhibitor control [24]: 95%
- % binding compared to no inhibitor control [25]: 100%
- % binding compared to no inhibitor control [26]: 92%
- % binding compared to no inhibitor control [8]: 100%
- cooperation with / sensitization to AZ-628 (cell viability) [9]: lost its ability to cooperate with AZ-628
